Laboratory results: patent US20040158066A1, “Novel pyridylmethylaminopyrimidines” (priority 2001, published 2004)
Converted amounts (≈) assume the structure as drawn.

How the values were obtained:
Helicobacter pylori [1] = assay: Helicobacter pylori eradication rate in vivo (urease test on antrum tissue); details: infected gerbils; 50 mg/kg by tube, 3 × daily for 4 days; urease test four weeks after last treatment
Description: Determination of the Helicobacter pylori Eradication Rate In Vivo
Gerbils were infected on days 1, 3, and 5 with a suspension containing 10^8-10^9 Helicobacter pylori bacteria per animal. […] Beginning on day 36, the gerbils were treated on four successive days—three times daily at 07.30, 11.30, and 15.00 hours—with a placebo or the test substance, using a tube. Four weeks after the last treatment, the gerbils were sacrificed using CO2. A tissue sample of the antrum was introduced into the urease test solution and incubated at 37° C. for 24 hours. Changes in color of the solution from yellow to violet, which resulted from the increase in pH caused by the formation of NH3 from the urease, were detected. The eradication rate was calculated as the percentage of animals whose stomach tissue sample gave a negative urease test.
Conditions Under which the Animals were Kept:
Groups of 5-10 gerbils per cage (type IV Macrolon cage) were kept at an ambient temperature of 23±2° C. and a relative humidity of 50±10%. They were fed ad libitum with NAFAG feed No. 9439 for rats and mice (NAFAG AG, CH-2900, Gossau, Switzerland) and had free access to mains water during the experiment.
The substances administered are referenced in table C below using numbers which correspond to the numbers of the compounds in the examples.

Helicobacter pylori [2] = assay: Inhibition of growth in vitro in liquid culture (NanoOrange fluorescence); assay type: cell-based; details: liquid culture BHI/6% FCS medium, 24 hours incubation at 37° C., microaerobic, 1% DMSO
Excerpt: Determination of the Inhibition of Growth In Vitro in Liquid Culture
The principle of the technique is based on the detection of the multiplication of, for example, Helicobacter pylori in liquid culture using BHI/6% FCS medium. The method ensures linear fluorescence increase in the range from 3×10^6 to 3×10^8 cells.
The bacterial culture was distributed with an initial density of 1-3×10^6 microbes/ml in a 96-well MTP in […]. The test substances in a concentration of […] in a final concentration of 1% DMSO were added to these minicultures. These MTPs were then incubated under microaerobic conditions (Anaerokult, Merck) and with shaking at 37° C. for 24 hours. Following the 24-hour incubation, the minicultures were transferred to filter MTPs and washed twice with isotonic buffer (filtered off with suction, taken up, shaken) and finally were taken up in double-distilled water and shaken, and an aliquot was transferred to a new MTP. This aliquot was admixed with the fluorescent dye NanoOrange (Molecular Probes) in accordance with the manufacturer's instructions. Development of protein detection took place at 90° C. in a pressure-secured sandwich technique. After the plates had cooled, the fluorescence was measured on a plate reader at 549 nm. […] This calculation was made using origin, sigmoidal curve adaptation by means of the ‘logistic’ algorithm.

Helicobacter pylori [3] = assay: Agar dilution test (inhibition of growth in vitro on agar plates); assay type: cell-based; details: 96 h, Columbia agar (Oxoid), growth period of 4 days, read-out: approx. MIC50
Excerpt: Agar Dilution Test (Determination of the Inhibition of Growth In Vitro on Agar Plates)
The compounds of the formula I were investigated for their activity against Helicobacter pylori in accordance with the methodology described by Tomoyuki Iwahi et al. (Antimicrobial Agents and Chemotherapy, 1991, 490-496) using Columbia agar (Oxoid) over a growth period of 4 days.

Row | melting point [°C] | IC50 (Helicobacter pylori [2]) [nM] | MIC50 (Helicobacter pylori [3]) [µg/mL] | SMILES | Eradication rate (Helicobacter pylori [1]) [%]
1 | 280 to 281 | – | – | Cc1nc(C)c(Cl)c(NCc2ccc(Oc3ccc4ncc([N+](=O)[O-])n4n3)cn2)n1.Cl.Cl | –
2 | 194 to 198 | 35 | ~0.1 (≈ 0.234 µM) | Cc1nc(C)c(Cl)c(NCc2ccc(Oc3ccc4ncc([N+](=O)[O-])n4n3)cn2)n1 [Compound 3, (5-Chloro-2,6dimethylpyrimidin-4-yl){5-(3-nitroimidazo[1,2-b]pyridazin-6-yloxy)pyridin-2-ylmethyl}amine] | 100
3 | 233 to 234 | – | – | Cc1nc(C)c(Cl)c(NCc2ccc(Oc3ccc4ncc([N+](=O)[O-])n4n3)cn2)n1.O=S(=O)(O)O | –
4 | 206 to 208 | – | – | Cc1nc(C)c(Cl)c(NCc2ccc(OCCn3c([N+](=O)[O-])cnc3C)c(Cl)n2)n1 [Compound 8, (5-Chloro-2,6-dimethylpyrimidin-4-yl)-{6-chloro-5-[2-(2-methyl-5-nitroimidazol-1-yl)ethoxy]pyridin-2-ylmethyl}amine] | –
5 | 181.5 to 183.5 | 40 | ~0.1 (≈ 0.239 µM) | Cc1nc(C)c(Cl)c(NCc2ccc(OCCn3c([N+](=O)[O-])cnc3C)cn2)n1 [Compound 4, (5-Chloro-2,6-dimethylpyrimidin-4-yl){5-[2-(2-methyl-5-nitroimidazol-1-yl)ethoxy]pyridine-2-ylmethyl}amine] | –
6 | 229.5 to 231.5 | 12 | ~0.1 (≈ 0.212 µM) | COc1c(Oc2ccc3ncc([N+](=O)[O-])n3n2)cnc(CNc2nc(C)nc(C)c2Cl)c1C [Compound 1, (5-Chloro-2,6-dimethylpyrimidin-4-yl)[4-methoxy-3-methyl-5-(3-nitroimidazo[1,2-b]pyridazin-6-yloxy)pyridin-2-ylmethyl]amine] | –
7 | 184 to 186 | – | – | Cc1nc(C)c(Cl)c(NCc2ccc(Oc3ccc4ncc([N+](=O)[O-])n4n3)c(Cl)n2)n1 [Compound 7, (5-Chloro-2,6-dimethylpyrimidin-4-yl)-[6-chloro-5-(3-nitroimidazo[1,2-b]pyridazin-6-yloxy)pyridin-2-ylmethyl]amine] | –
8 | 183 to 184 | – | – | Cc1nc(C)c(Cl)c(CNCc2ccc(Oc3ccc4ncc([N+](=O)[O-])n4n3)cn2)n1 [Compound 9, (5-Chloro-2,6-dimethylpyrimidin-4-yl)methyl-[5-(3-nitroimidazo[1,2-b]pyridazin-6-yloxy)pyridin-2-ylmethyl]amine] | –
9 | 182.5 to 184 | 64 | ~0.1 (≈ 0.216 µM) | COc1c(OCCn2c([N+](=O)[O-])cnc2C)cnc(CNc2nc(C)nc(C)c2Cl)c1C [Compound 2, (5-Chloro-2,6-dimethylpyrimidin-4-yl){4-methoxy-3-methyl-5-[2-(2-methyl-5-nitroimidazol-1-yl)ethoxy]pyridin-2-ylmethyl}amine] | –
